Data taken from the supplement of paper PMC10307832.

How the values were obtained:
Experiment in all cases: relative viability (nuclei count vs DMSO), 5 days (fraction); higher = more cells survive
GSK-J4 + Bortezomib = compound: CCOC(=O)CCNc1cc(N2CCc3ccccc3CC2)nc(-c2ccccn2)n1 [GSK-J4] + CC(C)C[C@H](NC(=O)[C@H](Cc1ccccc1)NC(=O)c1cnccn1)B(O)O [Bortezomib] (partner 0.002 µM)
Method in brief: (§1)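 For relative viability, nuclei counts in treated wells were divided by those in vehicle wells. Lung cancer cell lines had been pin-tool dosed in 1536-well plates the day after seeding and cultured for 5 days, then fixed and stained in one step (final 0.05% Triton X-100, 1% formaldehyde, 1 ug/ml Hoechst) and imaged at 4×. Doses were one drug alone or a fixed anchor-drug dose plus five library-drug doses (not always all listed) in √10 steps, and values are duplicate-plate medians.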

AZ3146 + Palbociclib = compound: CN1CCC(CC1)OC2=CC(=C(C=C2)NC3=NC=C4C(=N3)N(C(=O)N4C)C5CCCC5)OC [AZ3146] + CC(=O)c1c(C)c2cnc(Nc3ccc(N4CCNCC4)cn3)nc2n(C2CCCC2)c1=O [Palbociclib] (partner 0.5 µM)
Method in brief: as §1

AZ3146 + Dasatinib = compound: CN1CCC(CC1)OC2=CC(=C(C=C2)NC3=NC=C4C(=N3)N(C(=O)N4C)C5CCCC5)OC [AZ3146] + Cc1nc(Nc2ncc(C(=O)Nc3c(C)cccc3Cl)s2)cc(N2CCN(CCO)CC2)n1 [Dasatinib] (partner 0.075 µM)
Method in brief: as §1

GSK-J4 + Linsitinib = compound: CCOC(=O)CCNc1cc(N2CCc3ccccc3CC2)nc(-c2ccccn2)n1 [GSK-J4] + C[C@]1(O)C[C@@H](c2nc(-c3ccc4ccc(-c5ccccc5)nc4c3)c3c(N)nccn32)C1 [Linsitinib] (partner 1 µM)
Method in brief: as §1

Cell Line	relative viability (GSK-J4 + Bortezomib; first compound 0.5 µM)	relative viability (GSK-J4 + Bortezomib; first compound 1.581 µM)	relative viability (GSK-J4 + Bortezomib; first compound 5 µM)	relative viability (GSK-J4 + Bortezomib; first compound 15.81 µM)	relative viability (GSK-J4 + Bortezomib; first compound 50 µM)	relative viability (AZ3146 + Palbociclib; first compound 0.08 µM)	relative viability (AZ3146 + Palbociclib; first compound 0.253 µM)	relative viability (AZ3146 + Palbociclib; first compound 0.8 µM)	relative viability (AZ3146 + Palbociclib; first compound 2.53 µM)	relative viability (AZ3146 + Palbociclib; first compound 8 µM)	relative viability (AZ3146 + Dasatinib; first compound 0.08 µM)	relative viability (AZ3146 + Dasatinib; first compound 0.253 µM)	relative viability (AZ3146 + Dasatinib; first compound 0.8 µM)	relative viability (AZ3146 + Dasatinib; first compound 2.53 µM)	relative viability (AZ3146 + Dasatinib; first compound 8 µM)	relative viability (GSK-J4 + Linsitinib; first compound 0.5 µM)	relative viability (GSK-J4 + Linsitinib; first compound 1.581 µM)	relative viability (GSK-J4 + Linsitinib; first compound 5 µM)	relative viability (GSK-J4 + Linsitinib; first compound 15.81 µM)	relative viability (GSK-J4 + Linsitinib; first compound 50 µM)
NCI-H3122	0.938	0.982	0.986	1.02	0.993	0.179	0.19	0.228	0.23	0.19	0.878	0.816	0.859	0.817	0.752	0.939	1.04	1.04	0.998	0.98
PC-3 [JPC-3]	0.77	0.764	0.705	0.789	0.816	0.505		0.47	0.555	0.482	0.86	0.92	0.991	1.12	1.05	0.883	0.928	0.961	0.908	0.945
PC-14	0.719	0.91	0.973	0.759	0.8	0.524	0.606	0.518	0.571	0.0919	0.271	0.268	0.259	0.229	0.0367	0.909	0.918	0.86	0.915	1.05
RERF-LC-KJ	0.989	0.993	1.04	1.11	0.963	1.05	1.17	1.01	1.21	0.833	0.877	0.874	0.779	0.837	0.504	0.93	0.818	0.852	0.856	0.777
SK-LU-1	1.02	1.06	0.705	0.8	0.902	0.375	0.365	0.355	0.404	0.386	0.197	0.177	0.162	0.182	0.137	1.08	1.18	0.716	0.911	0.777
SW 1573	0.872	0.724	1.08	1.07	0.898	0.359	0.368	0.421	0.401	0.358	0.557	0.637	0.505	0.357	0.117	0.81	0.755	0.802	0.703	0.595
